Assay results as given in US20230331739A1, “INDOLO HEPTAMYL OXIME ANALOG CRYSTAL AS PARP INHIBITOR AND METHOD FOR PREPARING SAME” (CHIA TAI TIANQING PHARMACEUTICAL GROUP CO., LTD., priority 2020, published 2023).

Columns and labels:
[1] = test system: MDA-MB-436 cells with BRCA1 mutation; experiment: Anti-proliferation study on MDA-MB-436 cells (CellTiter-Glo); type: cell-based; conditions: Homo sapiens, MDA-MB-436, 168 h; 7 days incubation
Experimental: Materials: test compounds; RPMI-1640 medium; fetal bovine serum; penicillin/streptomycin antibiotic; MDA-MB-436 cells; Envision Multimode Plate Reader (PerkinElmer). MDA-MB-436 cells were seeded in a white 96-well plate by adding 80 μL of cell suspension (containing 3000 MDA-MB-436 cells) to each well. The cell plate was incubated in a CO2 incubator overnight. The test compounds were serially 5-fold diluted to the 8th concentration with a multichannel pipette, i.e., from 2 mM to 26 nM, in duplicate. 78 μL of medium was added to an intermediate plate, and the serially diluted compound was transferred to the intermediate plate at 2 μL per well. After being mixed well, the mixture was transferred to the cell plate at 20 μL per well. […] Another cell plate was provided for reading signal values on the day of compound addition and these signal values were used as Max values in data analysis. Promega CellTiter-Glo was added to the cell plate at 25 μL per well and the luminescence signals were stabilized by incubation for 10 min at room temperature. Readings were taken using a PerkinElmer Envision Multimode Plate Reader. […]

[2] = Protein binding rate in plasma (equilibrium dialysis), human; type: in vitro ADME; conditions: 4 h dialysis
Experimental: The protein binding rates of the compound disclosed herein in plasma of human, CD-1 mice and SD rats were determined. 796 μL of blank plasma was taken from human, CD-1 mice or SD rats, and 4 μL of test compound working solution (400 μM) or warfarin working solution (400 μM) was added to achieve a final concentration of 2 μM of both the test compound and the warfarin in the plasma sample. The samples were mixed well. The final concentration of organic phase DMSO was 0.5%; 50 μL of test compound and warfarin plasma sample was pipetted into a sample receiving plate (in triplicate), and a corresponding volume of blank plasma or buffer was immediately added such that the final volume in each sample well was 100 μL. The volume ratio of plasma to dialysis buffer was 1:1. […] All samples were subjected to LC/MS analysis after protein precipitation, and the protein binding rates and the recovery rates were calculated by the following formulas: protein unbinding rate (%)=100× drug concentration passing through dialysis membrane/drug concentration not passing through dialysate; protein binding rate (%)=100−protein unbinding rate (%); recovery rate (%)=100×(drug concentration passing through dialysis membrane+drug concentration not passing through dialysate)/total drug concentration before dialysis.

[3] = biological target: CYP1A2 (Homo sapiens (Human), UniProt P05177); experiment: Inhibition against cytochrome P450 isoenzymes, CYP1A2; type: in vitro ADME; conditions: human liver microsomes
Experimental: (§1) The inhibition of the test compound against different subtypes of the human cytochrome P450 isoenzyme was determined. The test compound, a standard inhibitor (100×final concentration) and a mixed substrate working solution were prepared; the microsomes frozen in a refrigerator at −80° C. were taken out and thawed. […]

[4] = biological target: CYP2C9 (Homo sapiens (Human), UniProt P11712); experiment: Inhibition against cytochrome P450 isoenzymes, CYP2C9; type: in vitro ADME; conditions: human liver microsomes
Experimental: as §1

[5] = Metabolic stability in liver microsomes, human; type: in vitro ADME; conditions: 1 μM, 0.5 mg/mL
Experimental: Objective: To test the metabolic stability of the test compound in liver microsomes of three species.
Procedures: 1 μM test compound and microsomes (0.5 mg/mL) were incubated at 37° C. in the presence of an NADPH regeneration system. Positive controls were testosterone ([…]), propylamine propiophenone (2D6 substrate) and diclofenac (2C9 substrate). At 37° C., positive controls were incubated with microsomes (0.5 mg/mL) in the presence of an NADPH regeneration system. The reaction was stopped by direct mixing of the sample with cold acetonitrile containing an internal standard at various time points (0, 5, 10, 20, 30 and 60 min). The compound and microsomes were incubated for 60 min in the absence of an NADPH regeneration system. One replicate (n=1) was set at each time point. The samples were analyzed by LC/MS/MS; the concentration of the compound was characterized by the ratio of the analyte peak area to the internal standard peak area.

CYP2C9, sequence (P11712 whole entry): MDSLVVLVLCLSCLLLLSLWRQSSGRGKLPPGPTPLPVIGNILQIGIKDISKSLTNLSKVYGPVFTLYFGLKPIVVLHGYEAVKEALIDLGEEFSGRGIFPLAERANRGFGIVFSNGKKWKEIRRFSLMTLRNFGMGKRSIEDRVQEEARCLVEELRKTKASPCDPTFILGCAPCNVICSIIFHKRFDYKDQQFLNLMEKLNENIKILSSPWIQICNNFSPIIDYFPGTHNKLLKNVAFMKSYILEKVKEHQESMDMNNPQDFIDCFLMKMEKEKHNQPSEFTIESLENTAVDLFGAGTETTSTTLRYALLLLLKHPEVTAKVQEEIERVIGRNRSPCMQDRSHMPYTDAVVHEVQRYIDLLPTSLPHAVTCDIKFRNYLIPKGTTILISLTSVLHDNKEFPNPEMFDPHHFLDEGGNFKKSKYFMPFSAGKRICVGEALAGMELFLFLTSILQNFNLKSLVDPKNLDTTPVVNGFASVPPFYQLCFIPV
CYP1A2, sequence (P05177 whole entry): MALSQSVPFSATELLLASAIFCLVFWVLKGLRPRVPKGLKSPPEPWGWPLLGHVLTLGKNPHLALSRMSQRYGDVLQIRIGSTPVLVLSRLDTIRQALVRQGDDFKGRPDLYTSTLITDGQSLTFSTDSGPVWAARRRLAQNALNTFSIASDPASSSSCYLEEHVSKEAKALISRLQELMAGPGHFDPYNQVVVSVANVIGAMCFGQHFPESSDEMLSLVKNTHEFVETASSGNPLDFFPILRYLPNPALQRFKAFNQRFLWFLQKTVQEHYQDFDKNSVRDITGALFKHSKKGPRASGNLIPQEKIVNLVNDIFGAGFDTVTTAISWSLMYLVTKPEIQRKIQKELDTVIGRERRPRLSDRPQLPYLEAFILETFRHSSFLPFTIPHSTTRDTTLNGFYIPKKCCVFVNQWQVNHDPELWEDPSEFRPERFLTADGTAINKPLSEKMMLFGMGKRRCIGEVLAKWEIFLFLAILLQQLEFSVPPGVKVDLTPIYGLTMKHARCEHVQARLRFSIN

C[C@]1(c2ccc(-c3[nH]c4cc(F)cc5c4c3CONC5=O)cc2)CCCN1 [Compound 1]
IC50 [1]: 0.0123 µM
fraction unbound at 4 h, 2 μM [2]: 0.149
IC50 [3]: > 50 µM
IC50 [4]: > 50 µM
Residual content after 60 min of incubation [5]: 35.9%
